Source: patent publication US7064204B2, “Pharmaceutically active compounds having a tricyclic pyrazolotriazolopyrimidine ring structure and methods of use” (King Pharmacueticals Reserch and Development, Inc., priority 2002, dated 2006)
Where a name gives a salt, the structure may show the parent alone.

Experiments:
[1] = target: T1, human A1 adenosine receptors (Homo sapiens, UniProt P30542); experiment: Displacement of [3H]DPCPX binding at human A1 adenosine receptors expressed in CHO cells
T1 construct: expressed in transfected cells; host or cells: CHO cells
T1 sequence (P30542 1-326): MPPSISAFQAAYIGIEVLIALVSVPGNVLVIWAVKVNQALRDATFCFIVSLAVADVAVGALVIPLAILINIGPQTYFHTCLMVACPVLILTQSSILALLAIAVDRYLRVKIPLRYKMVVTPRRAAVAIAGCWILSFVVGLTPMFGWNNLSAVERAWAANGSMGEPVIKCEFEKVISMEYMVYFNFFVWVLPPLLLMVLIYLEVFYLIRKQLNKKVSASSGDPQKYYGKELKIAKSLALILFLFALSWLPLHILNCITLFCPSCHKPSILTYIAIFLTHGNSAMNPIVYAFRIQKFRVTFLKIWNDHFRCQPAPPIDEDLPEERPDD

[2] = target: T2, human A2B adenosine receptors (Homo sapiens, UniProt P29275); experiment: Displacement of [3H]DPCPX binding at human A2B adenosine receptors expressed in HEK-293 cells
T2 construct: expressed in transfected cells; host or cells: HEK-293 cells
T2 sequence (P29275 1-332): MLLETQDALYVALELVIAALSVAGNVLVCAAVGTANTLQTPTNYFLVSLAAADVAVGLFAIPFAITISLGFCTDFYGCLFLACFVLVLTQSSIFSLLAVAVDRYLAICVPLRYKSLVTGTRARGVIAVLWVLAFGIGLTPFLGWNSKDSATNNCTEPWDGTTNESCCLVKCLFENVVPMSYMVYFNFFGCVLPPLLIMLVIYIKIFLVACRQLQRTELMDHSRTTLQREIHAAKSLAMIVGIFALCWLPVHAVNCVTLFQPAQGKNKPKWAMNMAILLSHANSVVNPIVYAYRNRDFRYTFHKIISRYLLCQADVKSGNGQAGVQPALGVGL

[3] = target: T3, human A2A adenosine receptors (Homo sapiens, UniProt P29274); experiment: Displacement of [3H]SCH58261 binding at human A2A adenosine receptors expressed in CHO cells; conditions: for Ki: CHO cells; for affinity for A2A adenosine receptor subtype / selectivity for A2A versus the other adenosine receptor subtypes: in words; for affinity for A2A adenosine receptor subtype: discussion of Tables 2 and 3
T3 construct: expressed in transfected cells; host or cells: CHO cells
T3 sequence (P29274 whole entry): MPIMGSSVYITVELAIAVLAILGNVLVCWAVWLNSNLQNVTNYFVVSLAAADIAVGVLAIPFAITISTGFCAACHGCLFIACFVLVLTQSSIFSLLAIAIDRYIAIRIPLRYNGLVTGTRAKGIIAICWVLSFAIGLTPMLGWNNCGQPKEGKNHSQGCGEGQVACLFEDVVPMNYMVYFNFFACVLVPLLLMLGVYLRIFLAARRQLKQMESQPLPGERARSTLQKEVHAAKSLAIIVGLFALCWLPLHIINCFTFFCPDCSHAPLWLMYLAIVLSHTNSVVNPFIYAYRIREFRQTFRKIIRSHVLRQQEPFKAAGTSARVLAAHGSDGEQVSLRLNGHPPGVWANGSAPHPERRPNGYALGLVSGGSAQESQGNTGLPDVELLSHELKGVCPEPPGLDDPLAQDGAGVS

[4] = target: T4, human A3 adenosine receptors (Homo sapiens, UniProt P0DMS8); experiment: Displacement of [3H]MRE 3008F20 binding at human A3 adenosine receptors expressed in CHO cells; parameters: expressed in transfected cells; host or cells: CHO cells; conditions: for affinity for / interaction with A3 adenosine receptor subtype: discussion of Tables 2 and 3
T4 sequence (P0DMS8 1-318): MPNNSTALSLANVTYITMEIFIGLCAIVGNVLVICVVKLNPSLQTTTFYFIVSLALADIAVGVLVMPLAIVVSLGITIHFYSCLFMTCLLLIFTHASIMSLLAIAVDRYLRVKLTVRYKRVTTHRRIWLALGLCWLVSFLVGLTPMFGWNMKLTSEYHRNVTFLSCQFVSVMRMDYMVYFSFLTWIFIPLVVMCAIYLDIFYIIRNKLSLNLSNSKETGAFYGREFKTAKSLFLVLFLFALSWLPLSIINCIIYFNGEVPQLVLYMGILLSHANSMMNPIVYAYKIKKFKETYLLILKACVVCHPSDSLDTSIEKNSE

[5] = Table 3: [3H]DPCPX, human A1, CHO cells
[6] = Table 3: [3H]DPCPX, HEK-293 cells
[7] = Table 3: [3H]SCH58261, human A2A
[8] = Table 3: [3H]MRE 3008F20, human A3, CHO cells
[9] = Table 2, footnote b: [3H]DPCPX, human A1
[10] = Table 2, footnote b: [3H]SCH58261, human A2A
[11] = Table 2, footnote b: [3H]MRE 3008F20, human A3, CHO cells

Ki [1, 5] | Ki [2, 6] | Ki [3, 7] | affinity for A2A adenosine receptor subtype [3] | affinity for / interaction with A3 adenosine receptor subtype ([4]; in words) | Ki [4, 8] | SMILES | other results
666 nM | – | – | useless | – | 308 nM | Cn1nc2nc(N)n3nc(-c4ccco4)nc3c2c1Nc1ccc(O)cc1 [Compound 52, 4-(5-Amino-2-furan-2-yl-8-methyl-8H-pyrazolo[4,3-e][1,2,4]triazolo[1,5-c]pyrimidin-9-ylamino)-phenol] | –
70 nM | 30 nM | 4.1 nM | – | decreased | 110 nM | CSc1c2c(nc(NC(=O)Cc3ccc4c(c3)OCO4)n3nc(-c4ccco4)nc23)nn1C [Compound 49, 2-Benzo[1,3]dioxol-5-yl-N-(2-furan-2-yl-8-methyl-9-methylsulfanyl-8H-pyrazolo[4,3-e][1,2,4]triazolo[1,5-c]pyrimidin-5-yl)-acetamide] | –
780 nM | 190 nM | 50 nM | maintains A2A affinity | decreased | – | CSc1c2c(nc(NC(=O)Cc3ccc(CC(C)C)cc3)n3nc(-c4ccco4)nc23)nn1C [Compound 48, N-(2-Furan-2-yl-8-methyl-9-methylsulfanyl-8H-pyrazolo[4,3-e][1,2,4]triazolo[1,5-c]pyrimidin-5-yl)-2-(4-isobutyl-phenyl)-acetamide] | –
136 nM | 65 nM | 61 nM | – | – | 183 nM | CCNc1c2c(nc(NC(=O)Cc3ccc4c(c3)OCO4)n3nc(-c4ccco4)nc23)nn1C [Compound 50, 2-Benzo[1,3]dioxol-5-yl-N-(9-ethylamino-2-furan-2-yl-8-methyl-8H-pyrazolo[4,3-e][1,2,4]triazolo[1,5-c]pyrimidin-5-yl)-acetamide] | –

More lines, now with the values behind:

SMILES | Ki [1, 5] | Ki [2, 6] | Ki [3, 7] | affinity for A2A adenosine receptor subtype [3] | affinity for / interaction with A3 adenosine receptor subtype ([4]; in words) | Ki [4, 8] | other results
COc1ccc(NC(=O)Nc2nc3nn(C)c(N4CCN(C)CC4)c3c3nc(-c4ccco4)nn23)cc1 [Compound 45, 1-[2-Furan-2-yl-8-methyl-9-(4-methyl-piperazin-1-yl)-8H-pyrazolo[4,3-e][1,2,4]triazolo[1,5-c]pyrimidin-5-yl]-3-(4-methoxy-phenyl)-urea] | 316 nM | 26 nM | – | – | – | – | –
COc1ccc(CC(=O)Nc2nc3nn(C)c(SC)c3c3nc(-c4ccco4)nn23)cc1 [Compound 47, N-(2-Furan-2-yl-8-methyl-9-methylsulfanyl-8H-pyrazolo[4,3-e][1,2,4]triazolo[1,5-c]pyrimidin-5-yl)-2-(4-methoxy-phenyl)-acetamide] | 80 nM | 45 nM | 15 nM | maintains A2A affinity | decreased | – | –
CCNc1c2c(nc(NC(=O)Nc3ccc(OC)cc3)n3nc(-c4ccco4)nc23)nn1C [Compound 44, 1-(9-Ethylamino-2-furan-2-yl-8-methyl-8H-pyrazolo[4,3-e][1,2,4]triazolo[1,5-c]pyrimidin-5-yl)-3-(4-methoxy-phenyl)-urea] | 150 nM | 37 nM | – | decrease of A2A affinity | good increase in A3 affinity | 17 nM | –
CN1CCN(c2c3c(nc(N)n4nc(-c5ccco5)nc34)nn2C)CC1 [Compound 40, 2-Furan-2-yl-8-methyl-9-(4-methyl-piperazin-1-yl)-8H-pyrazolo[4,3-e][1,2,4]triazolo[1,5-c]pyrimidin-5-ylamine] | 30 nM | 35 nM | 156 nM | useless | – | – | –
CCOc1ccccc1-c1nc2c3cnn(CCc4ccccc4)c3nc(N)n2n1 [Compound 5c, 2-(2-Ethoxy-phenyl)-7-phenethyl-7H-pyrazolo[4,3-e][1,2,4]triazolo[1,5-c]pyrimidin-5-ylamine] | – | – | – | – | poor affinity | – | Ki [1, 9]: > 1000 nM; Ki [3, 10]: > 1000 nM; Ki ([2]; Table 2, footnote b: [3H]DPCPX): > 1000 nM; Ki [4, 11]: 348 nM; selectivity for A3 versus the other adenosine receptor subtypes ([4]; in words): complete selectivity
CSc1c2c(nc(N)n3nc(-c4ccco4)nc23)nn1CCCc1ccccc1 [Compound 43, 2-Furan-2-yl-9-methylsulfanyl-8-(3-phenyl-propyl)-8H-pyrazolo[4,3-e][1,2,4]triazolo[1,5-c]pyrimidin-5-ylamine] | 175 nM | 31 nM | 22 nM | decrease of A2A interaction | – | – | –
CCNc1c2c(nc(N)n3nc(-c4ccco4)nc23)nn1C [Compound 53, N9-Ethyl-2-furan-2-yl-8-methyl-8H-pyrazolo[4,3-e][1,2,4]triazolo[1,5-c]pyrimidine-5,9-diamine hydrochloride salt] | – | – | – | – | – | – | Ki ([1]; Table 3: [3H]DPCPX, human A1, CHO cells, hydrochloride salt): 41 nM; Ki ([2]; Table 3: [3H]DPCPX, HEK-293 cells, hydrochloride salt): 36 nM; Ki ([4]; Table 3: [3H]MRE 3008F20, human A3, CHO cells, hydrochloride salt): 25 nM
COc1ccc(Nc2c3c(nc(N)n4nc(-c5ccco5)nc34)nn2C)cc1 [Compound 39, 2-Furan-2-yl-N9-(4-methoxy-phenyl)-8-methyl-8H-pyrazolo[4,3-e][1,2,4]triazolo[1,5-c]pyrimidine-5,9-diamine] | 260 nM | – | – | useless | – | – | –
CCCSc1c2c(nc(N)n3nc(-c4ccco4)nc23)nn1C [Compound 42, 2-Furan-2-yl-8-methyl-9-propylsulfanyl-8H-pyrazolo[4,3-e][1,2,4]triazolo[1,5-c]pyrimidin-5-ylamine] | 9 nM | 69 nM | 2.1 nM | maintains the A2A affinity | – | 224 nM | selectivity for A2A versus the other adenosine receptor subtypes [3]: increases the selectivity
CCOC(=O)COc1ccc(-c2nc3c4cnn(CCc5ccccc5)c4nc(N)n3n2)cc1 [Compound 6, [4-(5-Amino-7-phenethyl-7H-pyrazolo[4,3-e][1,2,4]triazolo[1,5-c]pyrimidin-2-yl)-phenoxy]-acetic acid ethyl ester] | – | – | – | – | – | – | Ki [1, 9]: > 1000 nM; Ki [3, 10]: > 1000 nM; Ki ([2]; Table 2, footnote b: [3H]DPCPX): > 1000 nM; Ki [4, 11]: > 1000 nM
CN1CCN(c2c3c(nc(N)n4nc(-c5ccco5)nc34)nn2C)CC1 [Compound 54, 2-Furan-2-yl-8-methyl-9-(4-methyl-piperazin-1-yl)-8H-pyrazolo[4,3-e][1,2,4]triazolo[1,5-c]pyrimidin-5-ylamine dihydrochloride salt] | – | – | – | – | – | – | Ki ([1]; Table 3: [3H]DPCPX, human A1, CHO cells, dihydrochloride salt): 48 nM; Ki ([3]; Table 3: [3H]SCH58261, human A2A, dihydrochloride salt): 135 nM; Ki ([2]; Table 3: [3H]DPCPX, HEK-293 cells, dihydrochloride salt): 12 nM
Nc1nc2c(cnn2CCc2ccccc2)c2nc(-c3ccc(OCC(=O)Nc4ccc(I)cc4)cc3)nn12 [Compound 8, 2-[4-(5-Amino-7-phenethyl-7H-pyrazolo[4,3-e][1,2,4]triazolo[1,5-c]pyrimidin-2-yl)-phenoxy]-N-(4-iodo-phenyl)-acetamide] | – | – | – | – | – | – | Ki [1, 9]: > 1000 nM; Ki [3, 10]: > 1000 nM; Ki ([2]; Table 2, footnote b: [3H]DPCPX): > 1000 nM; Ki [4, 11]: > 1000 nM
COc1ccc(NC(=O)Nc2nc3nn(C)c(SC)c3c3nc(-c4ccco4)nn23)cc1 [Compound 46, 1-(2-Furan-2-yl-8-methyl-9-methylsulfanyl-8H-pyrazolo[4,3-e][1,2,4]triazolo[1,5-c]pyrimidin-5-yl)-3-(4-methoxy-phenyl)-urea] | 70 nM | 24 nM | 3.1 nM | – | decreased | 212 nM | –
Nc1nc2c(cnn2CCc2ccccc2)c2nc(-c3ccc(OCC(=O)O)cc3)nn12 [Compound 7, [4-(5-Amino-7-phenethyl-7H-pyrazolo[4,3-e][1,2,4]triazolo[1,5-c]pyrimidin-2-yl)-phenoxy]-acetic acid] | – | – | – | – | – | – | Ki [1, 9]: > 1000 nM; Ki [3, 10]: > 1000 nM; Ki ([2]; Table 2, footnote b: [3H]DPCPX): > 1000 nM; Ki [4, 11]: > 1000 nM
CSc1c2c(nc(N)n3nc(-c4ccco4)nc23)nn1C [Compound 41, 2-Furan-2-yl-8-methyl-9-methylsulfanyl-8H-pyrazolo[4,3-e][1,2,4]triazolo[1,5-c]pyrimidin-5-ylamine] | 8.4 nM | 10.3 nM | 1.2 nM | good affinity | – | 35 nM | selectivity for A2A versus the other adenosine receptor subtypes [3]: low selectivity
